# In patent US20230053540A1, “TREATMENT OF LIVER INJURY” (Massachusetts Institute of Technology, priority 2019, published 2023):
# Tested on: hepatocytes
# Assay: Seq-Well scRNA-Seq of hepatocytes after APAP overdose (signature scores, DEG vs untreated)
# Assay type: in vivo, mouse
# Conditions: APAP vs UT
smiles,measurement,setting,value
"CC(=O)Nc1ccc(O)cc1 [APAP, acetaminophen]",Tm7sf2 logFC,composite DEG,−0.3164
same,Tmbim4 logFC,composite DEG,0.3227
same,Tmbim6 logFC,composite DEG,0.3387
same,Tmed5 logFC,composite DEG,0.4016
same,Tmem14c logFC,composite DEG,−0.3685
same,Tmem37 logFC,composite DEG,−0.2822
same,Tmem56 logFC,composite DEG,1
same,Tmem147 logFC,composite DEG,−0.2838
same,Tmem160 logFC,composite DEG,−0.339
same,Tmem205 logFC,composite DEG,−0.7747
same,Tmem243 logFC,composite DEG,−0.3791
same,Tmem258 logFC,composite DEG,−0.2769
same,Tmprss6 logFC,composite DEG,−0.2802
same,Tmsb4x logFC,composite DEG,0.7806
same,Tnks2 logFC,composite DEG,0.3176
same,Tns1 logFC,composite DEG,0.4349
same,Tob1 logFC,composite DEG,−0.3387
same,Tomm70a logFC,composite DEG,0.2688
same,Tpr logFC,composite DEG,0.4409
same,Trf logFC,composite DEG,−0.2619
same,Trib1 logFC,composite DEG,0.3317
same,Trp53inp1 logFC,composite DEG,1.008
same,Tsc22d1 logFC,composite DEG,−0.2997
same,Tspan31 logFC,composite DEG,−0.2959
same,Tspo logFC,composite DEG,−0.3157
same,Ttc36 logFC,composite DEG,−0.6606
same,Tubb6 logFC,composite DEG,0.5767
same,Txn1 logFC,composite DEG,−0.3091
same,Txndc5 logFC,composite DEG,0.2901
same,Txnrd1 logFC,composite DEG,1.444
same,Tyrobp logFC,composite DEG,0.4666
same,Ubb logFC,composite DEG,−0.275
same,Ubc logFC,composite DEG,−0.6618
same,Ubl5 logFC,composite DEG,−0.3033
same,Ubr4 logFC,composite DEG,0.3301
same,Ugp2 logFC,composite DEG,0.2973
same,Ugt2b1 logFC,composite DEG,−0.7768
same,Ugt2b5 logFC,composite DEG,−0.6034
same,Ugt2b36 logFC,composite DEG,−0.5834
same,Uhrf1bp1l logFC,composite DEG,0.4198
same,Uqcc2 logFC,composite DEG,−0.3269
same,Uqcrb logFC,composite DEG,−0.4084
same,Uqcrq logFC,composite DEG,−0.8867
same,Urah logFC,composite DEG,−0.7641
same,Uroc1 logFC,composite DEG,0.4162
same,Vcam1 logFC,composite DEG,0.4574
same,Vnn3 logFC,composite DEG,0.2765
same,Vtn logFC,composite DEG,0.3338
same,Wbp1l logFC,composite DEG,0.5535
same,Wdr26 logFC,composite DEG,0.4325
same,Wdr43 logFC,composite DEG,0.3438
same,Xiap logFC,composite DEG,0.2602
same,Yap1 logFC,composite DEG,0.3281
same,Zbtb20 logFC,composite DEG,0.4715
same,Zfp91 logFC,composite DEG,0.3707
same,Zyx logFC,composite DEG,0.2983
same,mmu-mir-6240 logFC,composite DEG,1.101
same,mt-Co3 logFC,composite DEG,−1.167
same,0610007P14Rik logFC,A24logFC,−0.257
same,1110058L19Rik logFC,A24logFC,−0.2581
same,4931406C07Rik logFC,A24logFC,−0.2544
same,4932438A13Rik logFC,A24logFC,0.2879
same,2810428115Rik logFC,A24logFC,−0.2631
same,Abcb11 logFC,A24logFC,−0.2618
same,Abcc2 logFC,A24logFC,0.2897
same,Abce1 logFC,A24logFC,0.28
same,Abcf1 logFC,A24logFC,0.3032
same,Abcg2 logFC,A24logFC,−0.2809
same,Acaa1a logFC,A24logFC,−0.3018
same,Acat3 logFC,A24logFC,−0.3115
same,Acot13 logFC,A24logFC,−0.2886
same,Acsm5 logFC,A24logFC,−0.2614
same,Actr3 logFC,A24logFC,0.276
same,Aes logFC,A24logFC,−0.2642
same,Anxa5 logFC,A24logFC,0.3654
same,Apof logFC,A24logFC,−0.2522
same,Arhgdia logFC,A24logFC,0.2563
same,Ash11 logFC,A24logFC,0.2657
same,Atf4 logFC,A24logFC,0.3411
same,Bc1af1 logFC,A24logFC,0.2685
same,Bdhl logFC,A24logFC,−0.2936
same,C6 logFC,A24logFC,−0.267
same,C1d logFC,A24logFC,−0.2553
same,Cap1 logFC,A24logFC,0.3251
same,Ccdc50 logFC,A24logFC,0.2858
same,Ccnl1 logFC,A24logFC,0.2566
same,Cdh1 logFC,A24logFC,0.2697
same,Cep85 logFC,A24logFC,0.2839
same,Chmp4b logFC,A24logFC,0.3002
same,Chuk logFC,A24logFC,0.3724
same,Clic4 logFC,A24logFC,0.2998
same,Coasy logFC,A24logFC,−0.2534
same,Commd3 logFC,A24logFC,−0.2656
same,Csrp3 logFC,A24logFC,−0.294
same,Ctnnd1 logFC,A24logFC,0.2518
same,Ctsc logFC,A24logFC,0.361
same,Cu11 logFC,A24logFC,0.2592
same,Cu13 logFC,A24logFC,0.2788
same,Cybb logFC,A24logFC,0.3778
same,Dcaf11 logFC,A24logFC,−0.2817
same,Ddost logFC,A24logFC,0.2504
same,Ddx3y logFC,A24logFC,0.3395
same,Deb1 logFC,A24logFC,−0.267
same,Dera logFC,A24logFC,−0.2674
same,Diap1 logFC,A24logFC,0.3259
same,Dnaja2 logFC,A24logFC,0.3723
same,Dnajc5 logFC,A24logFC,0.3265
same,Dsp logFC,A24logFC,0.2655
same,Eea1 logFC,A24logFC,0.2612
same,Eif4a1 logFC,A24logFC,0.2519
same,Eif4ebp1 logFC,A24logFC,0.2617
same,Eifia logFC,A24logFC,0.3147
same,Eifib logFC,A24logFC,0.2503
same,Eific logFC,A24logFC,0.302
same,Elovl5 logFC,A24logFC,0.3352
same,Fam195a logFC,A24logFC,−0.2649
same,Fasn logFC,A24logFC,0.2914
same,Fbxo21 logFC,A24logFC,−0.2631
same,Ftsj3 logFC,A24logFC,0.2552
same,Gadd45a logFC,A24logFC,0.2829
same,Gars logFC,A24logFC,0.2576
same,Gcat logFC,A24logFC,−0.2587
same,Gcgr logFC,A24logFC,−0.2576
same,Gda logFC,A24logFC,0.6275
same,Gldc logFC,A24logFC,0.2802
same,Glul logFC,A24logFC,0.3795
same,Gm5424 logFC,A24logFC,0.2698
same,Gm20594 logFC,A24logFC,−0.36
same,Gnai2 logFC,A24logFC,1
same,Gnas logFC,A24logFC,0.2589
same,Gsr logFC,A24logFC,0.4128
same,Gtf2a2 logFC,A24logFC,0.2792
same,H2-D1 logFC,A24logFC,0.2865
same,Hectd1 logFC,A24logFC,0.308
same,Herc1 logFC,A24logFC,0.2562
same,Herc4 logFC,A24logFC,0.2675
same,Hipk1 logFC,A24logFC,0.2916
same,Hnrnpu logFC,A24logFC,0.3394
same,Hpn logFC,A24logFC,−0.2686
same,Hsbp1 logFC,A24logFC,−0.2867
same,Iah1 logFC,A24logFC,−0.293
same,Impad1 logFC,A24logFC,0.3227
same,Ivns1abp logFC,A24logFC,0.3566
same,Kdm5a logFC,A24logFC,0.3514
same,Ldlr logFC,A24logFC,0.282
same,Lipc logFC,A24logFC,−0.2548
same,Magi3 logFC,A24logFC,0.27
same,Map3k2 logFC,A24logFC,0.2518
same,Mapkapk2 logFC,A24logFC,0.3138
same,Megf9 logFC,A24logFC,0.2769
same,Mgea5 logFC,A24logFC,0.3263
same,Mrpl11 logFC,A24logFC,−0.2685
same,Mrpl15 logFC,A24logFC,−0.2912
same,Mrpl20 logFC,A24logFC,−0.3093
same,Mrpl28 logFC,A24logFC,−0.2699
same,Mrpl34 logFC,A24logFC,−0.2838
same,Mrpl41 logFC,A24logFC,−0.2674
same,Mrpl42 logFC,A24logFC,−0.2845
same,Mrps12 logFC,A24logFC,−0.2504
same,Mvd logFC,A24logFC,−0.2704
same,Myeov2 logFC,A24logFC,−0.3052
same,Myo1b logFC,A24logFC,0.2624
same,Naa50 logFC,A24logFC,0.2657
same,Ndufa5 logFC,A24logFC,−0.252
same,Nek7 logFC,A24logFC,0.2911
same,Net1 logFC,A24logFC,0.3479
same,Nploc4 logFC,A24logFC,0.2918
same,Nqo2 logFC,A24logFC,−0.2678
same,Nucks1 logFC,A24logFC,0.3558
same,Nudt4 logFC,A24logFC,0.2542
same,Pa2g4 logFC,A24logFC,0.2893
same,Papss2 logFC,A24logFC,−0.2545
same,Pcm1 logFC,A24logFC,0.2654
same,Pde3b logFC,A24logFC,−0.259
same,Pdzd8 logFC,A24logFC,0.2863
same,Pet100 logFC,A24logFC,−0.28
same,Pgls logFC,A24logFC,−0.2747
same,Pi4k2a logFC,A24logFC,0.3536
same,Pkp4 logFC,A24logFC,0.323
same,Plbd2 logFC,A24logFC,0.2649
same,Plcxd2 logFC,A24logFC,−0.2752
same,Pmpcb logFC,A24logFC,−0.2636
same,Ppip5k2 logFC,A24logFC,0.3209
same,Ppm1g logFC,A24logFC,0.2522
same,Proc logFC,A24logFC,−0.2707
same,Prpf19 logFC,A24logFC,0.2588
same,Psap logFC,A24logFC,0.361
same,Psma1 logFC,A24logFC,−0.2567
same,Psma6 logFC,A24logFC,−0.3035
same,Ptpmt1 logFC,A24logFC,−0.256
same,Ptpn11 logFC,A24logFC,0.2778
same,Pvrl2 logFC,A24logFC,−0.2613
same,Rab6a logFC,A24logFC,0.3234
same,Rabac1 logFC,A24logFC,−0.266
same,Rangap1 logFC,A24logFC,0.2962
same,Rap1b logFC,A24logFC,0.3408
same,Rassf3 logFC,A24logFC,0.2912
same,Rbm39 logFC,A24logFC,0.2657
same,Riok3 logFC,A24logFC,0.2916
same,Rmnd5a logFC,A24logFC,0.3189
same,Rnf169 logFC,A24logFC,0.334
same,Rock1 logFC,A24logFC,0.2608
